Measurements from US9957271B2, “Substituted bicyclic aza-heterocycles and analogues as sirtuin modulators” (GlaxoSmithKline, LLC, priority 2012, dated 2018).

Assays:
SIRT1 [1] = biological target: T1, SIRT1 (Homo sapiens, UniProt Q96EB6); assay: TAMRA based mass spectrometry assay of SIRT1 activity; type: biochemical; conditions: TAMRA assay; for TAMRA EC1.5 (μM): concentration giving 150% activation of SIRT1; for Emax: percent maximum fold activation, read-out: TAMRA % Fold Act
T1 sequence (Q96EB6 1-747): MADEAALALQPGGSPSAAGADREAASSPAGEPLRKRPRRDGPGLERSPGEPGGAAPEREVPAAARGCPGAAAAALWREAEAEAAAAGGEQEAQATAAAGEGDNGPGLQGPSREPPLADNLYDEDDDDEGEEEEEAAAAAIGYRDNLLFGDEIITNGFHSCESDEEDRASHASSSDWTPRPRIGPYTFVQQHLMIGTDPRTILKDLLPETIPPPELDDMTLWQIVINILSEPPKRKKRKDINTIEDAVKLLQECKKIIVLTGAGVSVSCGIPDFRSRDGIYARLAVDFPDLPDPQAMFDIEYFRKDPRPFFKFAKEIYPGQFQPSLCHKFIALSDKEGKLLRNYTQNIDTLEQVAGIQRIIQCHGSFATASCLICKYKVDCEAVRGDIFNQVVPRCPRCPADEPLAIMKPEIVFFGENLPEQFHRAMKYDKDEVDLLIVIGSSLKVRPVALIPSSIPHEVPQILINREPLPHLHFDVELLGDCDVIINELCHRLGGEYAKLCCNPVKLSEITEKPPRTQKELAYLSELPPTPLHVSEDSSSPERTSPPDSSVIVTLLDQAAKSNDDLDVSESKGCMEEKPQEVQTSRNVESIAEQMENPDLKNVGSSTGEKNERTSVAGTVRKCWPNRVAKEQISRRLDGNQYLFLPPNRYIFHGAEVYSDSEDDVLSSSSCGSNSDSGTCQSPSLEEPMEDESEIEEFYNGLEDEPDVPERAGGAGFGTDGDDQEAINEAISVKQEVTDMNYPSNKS
In short: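 Recombinant N-terminal His-tagged human SIRT1 (10 nM, E. coli) incubated 25 min at 25 °C with 0.5 μM 5TMR-labelled p53-derived acetyl-peptide and 120 μM βNAD+ in Tris-acetate pH 8 buffer with DTT and 0.05% BSA, compound at varying concentrations. Stopped with formic acid; deacetylated peptide or OAADPR measured by mass spectrometry relative to DMSO controls.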

SIRT1 [2] = biological target: T1, SIRT1; assay: Trp mass spectrometry assay of SIRT1 activity; type: biochemical; conditions: Trp assay; for Trp EC1.5 (μM): concentration giving 150% activation of SIRT1; for Emax: percent maximum fold activation, read-out: Trp % Fold Act
In short: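 His-tagged SIRT1 expressed in E. coli BL21(DE3), 10 nM, incubated 25 min at 25° C. with 0.5 μM Ac-RHKK(Ac)W-NH2 peptide and 120 μM βNAD+ in 50 mM HEPES pH 7.5, […], 1 mM DTT, 0.05% BSA; formic acid stop. OAADPR or deacetylated peptide measured by mass spectrometry; EC1.5 and percent maximum activation versus DMSO control.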

Compound | TAMRA EC1.5 (μM) (SIRT1 [1]) | Emax (SIRT1 [1]) [%] | Trp EC1.5 (μM) (SIRT1 [2]) | Emax (SIRT1 [2]) [%]
Cc1cc(C)nc(NC(=O)c2c(C)nc3ccc(-c4cccc(OC[C@H](O)CO)c4)nn23)c1 [Compound 791] | A (EC1.5<1 μM) | ≥ 350 | B (EC1.5 1-25 μM) | < 350
Cc1nccc(C(=O)Nc2cnn3ccc(-c4ccccc4C(F)(F)F)nc23)n1 [Compound 794] | A (EC1.5<1 μM) | ≥ 350 | B (EC1.5 1-25 μM) | < 350
CC(C)c1nccc(C(=O)Nc2cnn3ccc(-c4ccccc4C(F)(F)F)nc23)n1 [Compound 796] | A (EC1.5<1 μM) | ≥ 350 | B (EC1.5 1-25 μM) | < 350
COc1nccc(NC(=O)c2cnn3ccc(-c4ccccc4OC(F)(F)F)nc23)n1 [Compound 797] | A (EC1.5<1 μM) | ≥ 350 | A (EC1.5<1 μM) | ≥ 350
Cc1cnc(C(=O)Nc2cnn3ccc(-c4ccccc4C(F)(F)F)nc23)cn1 [Compound 800] | B (EC1.5 1-25 μM) | ≥ 350 | C (EC1.5>25 μM) | < 350
O=C(Nc1cnn2ccc(-c3ccccc3C(F)(F)F)nc12)c1cscn1 [Compound 802] | B (EC1.5 1-25 μM) | ≥ 350 | C (EC1.5>25 μM) | < 350
Cc1scnc1C(=O)Nc1cnn2ccc(-c3ccccc3C(F)(F)F)nc12 [Compound 803] | B (EC1.5 1-25 μM) | ≥ 350 | C (EC1.5>25 μM) | < 350
Cc1cc(C)nc(NC(=O)c2cnn3ccc(-c4ccccc4C(F)(F)F)nc23)n1 [Compound 806] | A (EC1.5<1 μM) | ≥ 350 | B (EC1.5 1-25 μM) | ≥ 350
CC(C)c1csc(C(=O)Nc2cnn3ccc(-c4ccccc4C(F)(F)F)nc23)n1 [Compound 808] | A (EC1.5<1 μM) | ≥ 350 | B (EC1.5 1-25 μM) | < 350
O=C(Nc1cnn2ccc(-c3ccccc3C(F)(F)F)nc12)c1nc(C(F)(F)F)cs1 [Compound 809] | A (EC1.5<1 μM) | ≥ 350 | C (EC1.5>25 μM) | < 350
O=C(Nc1ccccn1)c1cnc2ccc(-c3ccccc3OC[C@H](O)CO)nn12 [Compound 812] | A (EC1.5<1 μM) | ≥ 350 | A (EC1.5<1 μM) | ≥ 350
O=C(Nc1ccc(F)cn1)c1cnc2ccc(-c3ccccc3OC[C@H](O)CO)nn12 [Compound 814] | B (EC1.5 1-25 μM) | ≥ 350 | B (EC1.5 1-25 μM) | < 350
Cc1nc2ccc(-c3ccccc3OC[C@H](O)CO)nn2c1C(=O)Nc1ccccn1 [Compound 815, (R)-6-(2-(2,3-dihydroxypropoxy)phenyl)-2-methyl-N-(pyridin-2-yl)imidazo[1,2-b]pyridazine-3-carboxamide] | A (EC1.5<1 μM) | ≥ 350 | A (EC1.5<1 μM) | ≥ 350
Cc1cccc(NC(=O)c2c(C)nc3ccc(-c4ccccc4OC[C@H](O)CO)nn23)n1 [Compound 816] | A (EC1.5<1 μM) | ≥ 350 | A (EC1.5<1 μM) | ≥ 350
Cc1cc(NC(=O)c2c(C)nc3ccc(-c4ccccc4OC[C@H](O)CO)nn23)nc(C)n1 [Compound 818] | A (EC1.5<1 μM) | ≥ 350 | B (EC1.5 1-25 μM) | < 350
Cc1cnc(NC(=O)c2cnc3ccc(-c4ccccc4OC[C@H](O)CO)nn23)s1 [Compound 820] | B (EC1.5 1-25 μM) | ≥ 350 | B (EC1.5 1-25 μM) | < 350
Cc1nc2ccc(-c3cccc(OC[C@H](O)CO)c3)nn2c1C(=O)Nc1ccc(F)cn1 [Compound 821] | B (EC1.5 1-25 μM) | < 350 | A (EC1.5<1 μM) | < 350
Cc1cnc(NC(=O)c2c(C)nc3ccc(-c4cccc(OC[C@H](O)CO)c4)nn23)s1 [Compound 823] | A (EC1.5<1 μM) | < 350 | A (EC1.5<1 μM) | < 350
Cc1ncccc1NC(=O)c1c(C)nn2ccc(-c3ccccc3Br)nc12 [Compound 824] | B (EC1.5 1-25 μM) | ≥ 350 | A (EC1.5<1 μM) | ≥ 350
Cc1cc(C)c(NC(=O)c2c(C)nn3ccc(-c4ccccc4Br)nc23)cn1 [Compound 826] | B (EC1.5 1-25 μM) | ≥ 350 | A (EC1.5<1 μM) | < 350
Cc1cncc(NC(=O)c2c(C)nn3ccc(-c4ccccc4Br)nc23)c1 [Compound 827] | A (EC1.5<1 μM) | ≥ 350 | A (EC1.5<1 μM) | < 350
O=C(Nc1cnn2ccc(-c3ccccc3C(F)(F)F)nc12)c1cnc(O)cn1 [Compound 828] | A (EC1.5<1 μM) | ≥ 350 | C (EC1.5>25 μM) | < 350
Cc1cnc(NC(=O)c2c(C)nc3ccc(-c4ccccc4OC[C@H](O)CO)nn23)s1 [Compound 829] | A (EC1.5<1 μM) | ≥ 350 | A (EC1.5<1 μM) | < 350
O=C(Nc1cnn2ccc(-c3ccccc3C(F)(F)F)nc12)c1cc(O)ncn1 [Compound 830] | A (EC1.5<1 μM) | ≥ 350 | C (EC1.5>25 μM) | < 350
O=C(Nc1ccncc1F)c1cnc2ccc(-c3ccccc3OC[C@H](O)CO)nn12 [Compound 831] | B (EC1.5 1-25 μM) | ≥ 350 | B (EC1.5 1-25 μM) | < 350
Cc1cc(NC(=O)c2cnc3ccc(-c4ccccc4OC[C@H](O)CO)nn23)nc(C)n1 [Compound 832] | A (EC1.5<1 μM) | ≥ 350 | B (EC1.5 1-25 μM) | < 350
O=C(Nc1ccncn1)c1cnc2ccc(-c3ccccc3OC[C@H](O)CO)nn12 [Compound 833] | B (EC1.5 1-25 μM) | ≥ 350 | B (EC1.5 1-25 μM) | < 350
